Results published in ChEMBL document CHEMBL1128242, “Polyiodinated triglyceride analogs as potential computed tomography imaging agents for the liver” (J Med Chem, 1995).

How the values were obtained:
Type in all cases: ADME, organism-based
Rattus norvegicus [1] = experiment: Analysis of lipid-soluble radioactivity in plasma 24 hour after iv administration of [125I]-labeled 2-Oleoyl 1,3-disubstituted Triacylglycerols and represented as % CHCl3/CH3OH from rat; details: in vivo
Rattus norvegicus [2] = experiment: Distribution of radioactivity was determined in blood at 24 hr after intravenous administration of [125I]-labeled 2-oleoglycerol 1,3-Bis-[omega-(3-amino-2,4,6-triiodophenyl)alkanoates] in rats; details: in vivo
Rattus norvegicus [3] = experiment: Distribution of radioactivity was determined in spleen at 30 min after intravenous administration of [125I]-labeled 2-oleoglycerol 1,3-Bis-[omega-(3-amino-2,4,6-triiodophenyl)alkanoates] in rats; details: in vivo, 0.5 h
Rattus norvegicus [4] = experiment: Distribution of radioactivity was determined in kidney at 30 min after intravenous administration of [125I]-labeled 2-oleoglycerol 1,3-Bis-[omega-(3-amino-2,4,6-triiodophenyl)alkanoates] in rats; details: in vivo, 0.5 h
Rattus norvegicus [5] = experiment: Distribution of radioactivity was determined in plasma at 3h after intravenous administration of [125I]-labeled 2-oleoglycerol 1,3-Bis-[omega-(3-amino-2,4,6-triiodophenyl)alkanoates] in rats; details: in vivo
Rattus norvegicus [6] = experiment: Distribution of radioactivity was determined in spleen at 24 hr after intravenous administration of 1,3-Disubstituted Triacylglycerols in rats; details: in vivo
Rattus norvegicus [7] = experiment: Distribution of radioactivity was determined in liver at 30 min after intravenous administration of [125I]-labeled 2-oleoglycerol 1,3-Bis-[omega-(3-amino-2,4,6-triiodophenyl)alkanoates] in rats; details: in vivo, 0.5 h
Rattus norvegicus [8] = experiment: Distribution of radioactivity was determined in spleen at 24 hr after intravenous administration of [125I]-labeled 2-oleoglycerol 1,3-Bis-[omega-(3-amino-2,4,6-triiodophenyl)alkanoates] in rats; details: in vivo
Rattus norvegicus [9] = experiment: Distribution of radioactivity was determined in heart at 24 after intravenous administration of [125I]-labeled 2-oleoglycerol 1,3-Bis-[omega-(3-amino-2,4,6-triiodophenyl)alkanoates] in rats; details: in vivo
Rattus norvegicus [10] = experiment: Distribution of radioactivity was determined in spleen at 30 min after intravenous administration of 1,3-Disubstituted Triacylglycerols in rats; details: in vivo, 0.5 h
Rattus norvegicus [11] = experiment: Distribution of radioactivity was determined in liver at 30 min after intravenous administration of 1,3-Disubstituted Triacylglycerols in rats; details: in vivo, 0.5 h
Rattus norvegicus [12] = experiment: Distribution of radioactivity was determined in lung at 3h after intravenous administration of [125I]-labeled 2-oleoglycerol 1,3-Bis-[omega-(3-amino-2,4,6-triiodophenyl)alkanoates] in rats; details: in vivo
Rattus norvegicus [13] = experiment: Distribution of radioactivity was determined in liver at 3h after intravenous administration of [125I]-labeled 2-oleoglycerol 1,3-Bis-[omega-(3-amino-2,4,6-triiodophenyl)alkanoates] in rats; details: in vivo
Rattus norvegicus [14] = experiment: Distribution of radioactivity was determined in liver at 3h after intravenous administration of 1,3-Disubstituted Triacylglycerols in rats; details: in vivo

| SMILES | Lipid-soluble radioactivity (Rattus norvegicus [1]) | Distribution of radioactivity (Rattus norvegicus [2]) [% dose/g] | Distribution of radioactivity (Rattus norvegicus [3]) [% dose/g] | Distribution of radioactivity (Rattus norvegicus [4]) [% dose/g] | Distribution of radioactivity (Rattus norvegicus [5]) [% dose/g] | Distribution of radioactivity (Rattus norvegicus [6]) [% dose/organ] | Distribution of radioactivity (Rattus norvegicus [7]) [% dose/g] | Distribution of radioactivity (Rattus norvegicus [8]) [% dose/g] | Distribution of radioactivity (Rattus norvegicus [9]) [% dose/g] | Distribution of radioactivity (Rattus norvegicus [10]) [% dose/organ] | Radioactivity per organ (Rattus norvegicus [11]) [% dose/organ] | Distribution of radioactivity (Rattus norvegicus [12]) [% dose/g] | Distribution of radioactivity (Rattus norvegicus [13]) [% dose/g] | Distribution of radioactivity (Rattus norvegicus [14]) [% dose/organ] |
| --- | --- | --- | --- | --- | --- | --- | --- | --- | --- | --- | --- | --- | --- | --- |
| CCCCCCCC/C=C/CCCCCCCC(=O)OC(COC(=O)CCCCc1c(I)cc(I)c(N)c1I)COC(=O)CCCCc1c(I)cc(I)c(N)c1I | 54.5 | 0.14 | 17.9 | 0.05 | 0.09 | 6.4 | 7.37 | 13.7 | 0.07 | 9.5 | 65.1 | 0.46 | 6.94 | 60.7 |
| CCCCCCCC/C=C/CCCCCCCC(=O)OC(COC(=O)C(CC)Cc1c(I)cc(I)c(N)c1I)COC(=O)C(CC)Cc1c(I)cc(I)c(N)c1I (stereo not given) | 83 | 0.01 | 24.8 | 0.07 | 0.03 | 12.5 | 9.67 | 21.7 | 0.06 | 14.4 | 78 | 0.2 | 9 | 80 |
| CCCCCCCC/C=C/CCCCCCCC(=O)OC(COC(=O)CCCCCCc1c(I)cc(I)c(N)c1I)COC(=O)CCCCCCc1c(I)cc(I)c(N)c1I | 15.3 | 0.22 | 21.8 | 0.2 | 0.29 | 0.8 | 7.23 | 1.43 | 0.1 | 10.5 | 67.7 | 0.34 | 5.84 | 45.8 |
| CCCCCCCC/C=C/CCCCCCCC(=O)OC(COC(=O)CCCCCc1c(I)cc(I)c(N)c1I)COC(=O)CCCCCc1c(I)cc(I)c(N)c1I | 80.6 | 0.1 | 24.4 | 0.09 | 0.24 | 5.8 | 7.01 | 10.4 | 0.07 | 13.9 | 66.8 | 0.21 | 8.74 | 66 |
| CCCCCCCC/C=C/CCCCCCCC(=O)OC(COC(=O)Cc1c(I)cc(I)c(N)c1I)COC(=O)Cc1c(I)cc(I)c(N)c1I | 24.4 | 0.01 | 23.4 | 0.1 | 0.07 | 12.2 | 7.9 | 24.2 | 0.03 | 12 | 69.8 | 0.38 | 10.3 | 79 |
